Measured values taken from ChEMBL document CHEMBL3588817, “Discovery of 4,5,6,7-Tetrahydrobenzo[1,2-d]thiazoles as Novel DNA Gyrase Inhibitors Targeting the ATP-Binding Site” (J Med Chem, 2015).
In brackets after ≈: the same amount, converted by molar mass.

Assays:
Escherichia coli [1] = test: Antibacterial activity against wild type Escherichia coli ATCC 25922 by broth microdilution method; type: functional
Escherichia coli [2] = test: Antibacterial activity against wild type Escherichia coli ATCC 25922 assessed as inhibition of microbial growth at 50 uM by broth microdilution method; type: functional; conditions: read-out: GI
Staphylococcus aureus [3] = test: Antibacterial activity against Staphylococcus aureus 25923 assessed as inhibition of microbial growth at 50 uM by broth microdilution method; type: functional; conditions: read-out: GI
DNA gyrase = DNA gyrase (Escherichia coli, UniProt P0AES4+P0AES6); test: Inhibition of Escherichia coli DNA gyrase using relaxed pNO1 plasmid and biotinylated oligonucelotide incubated for 30 mins by fluorescence based DNA super-coiling assay; type: protein-complex assay
[4] = molecular target: DNA gyrase (Staphylococcus aureus) (UniProt P0A0K8+P20831); test: Inhibition of Staphylococcus aureus DNA gyrase assessed as residual enzyme activity at 100 uM using relaxed pNO1 plasmid and biotinylated oligonucelotide incubated for 30 mins by fluorescence based DNA super-coiling assay; type: protein-complex assay
Escherichia coli [5] = test: Inhibition of Escherichia coli DNA topoisomerase 4 assessed as residual enzyme activity at 100 uM using relaxed pNO1 plasmid and biotinylated oligonucelotide incubated for 30 mins by fluorescence based DNA relaxation assay
Enterococcus faecalis [6] = test: Antibacterial activity against Enterococcus faecalis ATCC 29212 assessed as inhibition of microbial growth at 50 uM by broth microdilution method; type: functional; conditions: read-out: GI
Escherichia coli [7] = test: Antibacterial activity against Escherichia coli imp4213::Tn10 by broth microdilution method; type: functional
[8] = molecular target: Topoisomerase IV (Staphylococcus aureus) (UniProt P0C1U9+P0C1S7); test: Inhibition of Staphylococcus aureus DNA topoisomerase 4 assessed as residual enzyme activity at 100 uM using relaxed pNO1 plasmid and biotinylated oligonucelotide incubated for 30 mins by fluorescence based DNA relaxation assay; type: protein-complex assay
Enterococcus faecalis [9] = test: Antibacterial activity against Enterococcus faecalis ATCC 29212 assessed as inhibition of microbial growth by broth microdilution method; type: functional
Escherichia coli [10] = test: Antibacterial activity against wild type Escherichia coli ATCC 25922 assessed as inhibition of microbial growth by broth microdilution method; type: functional
Pseudomonas aeruginosa [11] = test: Antibacterial activity against Pseudomonas aeruginosa ATCC 27853 assessed as inhibition of microbial growth at 50 uM by broth microdilution method; type: functional; conditions: read-out: GI
Pseudomonas aeruginosa [12] = test: Antibacterial activity against Pseudomonas aeruginosa ATCC 27853 assessed as inhibition of microbial growth by broth microdilution method; type: functional
Escherichia coli [13] = test: Antibacterial activity against efflux deficient Escherichia coli tolC::Tn10 lacking functional tolC gene by broth microdilution method
Staphylococcus aureus [14] = test: Antibacterial activity against Staphylococcus aureus 25923 assessed as inhibition of microbial growth by broth microdilution method; type: functional

Sequence of DNA gyrase (Staphylococcus aureus) (P0A0K8 2-644 limits assumed): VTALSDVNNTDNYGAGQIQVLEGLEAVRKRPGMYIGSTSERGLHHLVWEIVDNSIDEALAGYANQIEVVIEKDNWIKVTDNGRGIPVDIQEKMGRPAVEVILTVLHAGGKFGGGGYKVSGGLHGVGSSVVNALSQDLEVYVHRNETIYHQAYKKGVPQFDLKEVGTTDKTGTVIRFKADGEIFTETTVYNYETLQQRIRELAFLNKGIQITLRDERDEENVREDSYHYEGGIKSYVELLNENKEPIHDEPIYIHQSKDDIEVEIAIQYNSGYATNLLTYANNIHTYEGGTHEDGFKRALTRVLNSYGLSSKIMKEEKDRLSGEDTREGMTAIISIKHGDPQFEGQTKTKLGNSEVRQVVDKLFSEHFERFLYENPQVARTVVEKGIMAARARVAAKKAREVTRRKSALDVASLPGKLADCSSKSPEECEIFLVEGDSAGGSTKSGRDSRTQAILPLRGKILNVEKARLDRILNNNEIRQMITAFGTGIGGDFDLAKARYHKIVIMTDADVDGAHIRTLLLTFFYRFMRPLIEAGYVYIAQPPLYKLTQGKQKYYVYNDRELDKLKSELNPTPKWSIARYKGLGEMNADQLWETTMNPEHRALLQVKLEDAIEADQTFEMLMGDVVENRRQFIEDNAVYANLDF
Sequence of DNA gyrase (Staphylococcus aureus) (P20831 whole entry partner): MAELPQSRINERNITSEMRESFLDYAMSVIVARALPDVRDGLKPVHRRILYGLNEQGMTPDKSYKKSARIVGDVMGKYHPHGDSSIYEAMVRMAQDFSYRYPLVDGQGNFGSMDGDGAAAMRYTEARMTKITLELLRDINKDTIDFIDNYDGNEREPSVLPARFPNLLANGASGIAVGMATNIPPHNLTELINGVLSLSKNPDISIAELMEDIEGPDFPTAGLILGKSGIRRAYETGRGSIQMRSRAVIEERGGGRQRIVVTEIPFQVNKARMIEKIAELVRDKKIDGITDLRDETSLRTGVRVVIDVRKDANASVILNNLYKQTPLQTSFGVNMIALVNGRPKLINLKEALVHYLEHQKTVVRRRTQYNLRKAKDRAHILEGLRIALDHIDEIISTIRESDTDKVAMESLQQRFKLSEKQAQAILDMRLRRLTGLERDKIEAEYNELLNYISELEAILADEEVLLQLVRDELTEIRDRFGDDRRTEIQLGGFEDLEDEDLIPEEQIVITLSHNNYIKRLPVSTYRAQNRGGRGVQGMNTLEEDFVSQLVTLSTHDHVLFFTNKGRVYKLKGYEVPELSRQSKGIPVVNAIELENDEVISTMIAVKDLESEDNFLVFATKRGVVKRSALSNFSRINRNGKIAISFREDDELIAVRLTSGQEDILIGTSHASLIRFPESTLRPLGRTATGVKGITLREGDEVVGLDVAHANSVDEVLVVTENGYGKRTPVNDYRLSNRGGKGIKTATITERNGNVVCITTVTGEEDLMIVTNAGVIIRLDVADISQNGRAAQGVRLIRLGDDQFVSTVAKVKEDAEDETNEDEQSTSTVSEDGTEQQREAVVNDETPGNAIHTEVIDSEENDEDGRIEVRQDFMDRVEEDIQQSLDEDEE

SMILES	MIC (Escherichia coli [1])	inhibition of growth at 50 µM (Escherichia coli [2])	inhibition of growth at 50 µM (Staphylococcus aureus [3])	IC50 (DNA gyrase)	Activity [4]	Activity (Escherichia coli [5])	inhibition of growth at 50 µM (Enterococcus faecalis [6])	MIC (Escherichia coli [7])	Activity [8]	MIC (Enterococcus faecalis [9])	MIC (Escherichia coli [10])	inhibition of growth at 50 µM (Pseudomonas aeruginosa [11])	MIC (Pseudomonas aeruginosa [12])	MIC (Escherichia coli [13])	MIC (Staphylococcus aureus [14])
O=C(O)CC(=O)Nc1nc2c(s1)C[C@H](NC(=O)c1cc(Br)c(Br)[nH]1)CC2	> 256 µg/mL	< 50%	< 50%	0.5 µM	108%	96%	< 50%	> 256 µg/mL	102%	> 125 µM	> 125 µM	< 50%	> 125 µM	> 256 µg/mL	> 125 µM
COC(=O)CCC(=O)Nc1nc2c(s1)C[C@@H](NC(=O)c1cc3ccccc3[nH]1)CC2	–	< 50%	< 50%	9.1 µM	87%	101%	< 50%	–	104%	> 125 µM	> 125 µM	< 50%	> 125 µM	–	> 125 µM
Nc1nc2c(s1)C[C@@H](NC(=O)c1cc3cc(F)ccc3[nH]1)CC2	> 256 µg/mL	< 50%	< 50%	270 µM	–	–	< 50%	> 256 µg/mL	–	> 125 µM	> 125 µM	< 50%	> 125 µM	> 256 µg/mL	> 125 µM
Nc1nc2c(s1)C[C@@H](NC(=O)c1cc3ccccc3[nH]1)CC2	–	–	–	21 µM	87%	103%	–	–	100%	–	–	–	–	–	–
O=C1CCN2C(=N1)SC1=C2CC[C@H](NC(=O)c2cc(Br)c(Br)[nH]2)C1	> 256 µg/mL	< 50%	< 50%	12 µM	–	–	< 50%	> 256 µg/mL	–	> 125 µM	> 125 µM	< 50%	> 125 µM	> 256 µg/mL	> 125 µM
Nc1ncc2c(n1)CCC(NC(=O)c1cc(Br)c[nH]1)C2 (configuration not stated)	–	< 50%	< 50%	35 µM	100%	97%	< 50%	–	105%	> 125 µM	> 125 µM	< 50%	> 125 µM	–	> 125 µM
NC(=O)CC(=O)Nc1nc2c(s1)C[C@@H](NC(=O)c1cc(Br)c(Br)[nH]1)CC2	> 256 µg/mL	< 50%	< 50%	1.7 µM	71%	97%	< 50%	> 256 µg/mL	98%	> 125 µM	> 125 µM	< 50%	> 125 µM	128 µg/mL (≈ 253 µM)	> 125 µM
O=C(O)C(=O)Nc1nc2c(s1)C[C@@H](NC(=O)c1cc3ccccc3[nH]1)CC2	> 256 µg/mL	< 50%	< 50%	7.7 µM	79%	47%	< 50%	128 µg/mL (≈ 333 µM)	99%	> 125 µM	> 125 µM	< 50%	> 125 µM	> 256 µg/mL	> 125 µM
CCOC(=O)C(=O)Nc1nc2c(s1)C[C@@H](NC(=O)c1cc3ccccc3[nH]1)CC2	–	< 50%	< 50%	10 µM	76%	101%	< 50%	–	99%	> 125 µM	> 125 µM	< 50%	> 125 µM	–	> 125 µM
COC(=O)CC(=O)Nc1nc2c(s1)C[C@@H](NC(=O)c1cc(Br)c[nH]1)CC2	–	< 50%	< 50%	25 µM	100%	95%	< 50%	–	104%	> 125 µM	> 125 µM	< 50%	> 125 µM	–	> 125 µM
COC(=O)CC(=O)Nc1nc2c(s1)C[C@@H](NC(=O)c1cc3ccccc3[nH]1)CC2	> 256 µg/mL	< 50%	< 50%	35 µM	–	–	< 50%	> 256 µg/mL	–	> 125 µM	> 125 µM	< 50%	> 125 µM	> 256 µg/mL	> 125 µM
Nc1nc2c(s1)CC(CNC(=O)c1cc(Br)c(Br)[nH]1)CC2 (configuration not stated)	–	–	–	120 µM	–	–	–	–	–	–	–	–	–	–	–
Nc1nc2c(s1)C[C@H](NC(=O)c1cc(Br)c(Br)[nH]1)CC2	> 256 µg/mL	< 50%	< 50%	41 µM	118%	96%	< 50%	64 µg/mL (≈ 152 µM)	92%	> 125 µM	> 125 µM	< 50%	> 125 µM	64 µg/mL (≈ 152 µM)	> 125 µM
COC(=O)CC(=O)Nc1ncc2c(n1)CCC(NC(=O)c1cc(Br)c(Br)[nH]1)C2 (configuration not stated)	> 256 µg/mL	< 50%	< 50%	2.6 µM	71%	97%	< 50%	256 µg/mL (≈ 497 µM)	98%	> 125 µM	> 125 µM	< 50%	> 125 µM	64 µg/mL (≈ 124 µM)	> 125 µM
O=C(O)CC(=O)Nc1nc2c(s1)C[C@@H](NC(=O)c1cc(Br)c[nH]1)CC2	–	< 50%	< 50%	14 µM	110%	96%	< 50%	–	97%	> 125 µM	> 125 µM	< 50%	> 125 µM	–	> 125 µM
Nc1ncc2c(n1)CCC(CNC(=O)c1cc(Br)c(Br)[nH]1)C2 (configuration not stated)	–	–	–	170 µM	–	–	–	–	–	–	–	–	–	–	–
Nc1ncc2c(n1)CCC(NC(=O)c1cc3ccccc3[nH]1)C2 (configuration not stated)	–	< 50%	< 50%	29 µM	119%	97%	< 50%	–	103%	> 125 µM	> 125 µM	< 50%	> 125 µM	–	> 125 µM
Nc1nc2c(s1)C[C@@H](NC(=O)c1cc(Br)c[nH]1)CC2	–	< 50%	< 50%	520 µM	–	–	< 50%	–	–	> 125 µM	> 125 µM	< 50%	> 125 µM	–	> 125 µM
Nc1ncc2c(n1)CCC(NC(=O)c1cc(Cl)c(Cl)[nH]1)C2 (configuration not stated)	–	–	–	5.7 µM	90%	96%	–	–	106%	–	–	–	–	–	–
